Experimental data published in ChEMBL document CHEMBL1137119, “Design and synthesis of 3-(2-pyridyl)pyrazolo[1,5-a]pyrimidines as potent CRF1 receptor antagonists” (Bioorg Med Chem Lett, 2004).

Target: T1, Corticotropin-releasing factor receptor 1 (Homo sapiens, UniProt P34998)
T1 sequence (P34998 whole entry): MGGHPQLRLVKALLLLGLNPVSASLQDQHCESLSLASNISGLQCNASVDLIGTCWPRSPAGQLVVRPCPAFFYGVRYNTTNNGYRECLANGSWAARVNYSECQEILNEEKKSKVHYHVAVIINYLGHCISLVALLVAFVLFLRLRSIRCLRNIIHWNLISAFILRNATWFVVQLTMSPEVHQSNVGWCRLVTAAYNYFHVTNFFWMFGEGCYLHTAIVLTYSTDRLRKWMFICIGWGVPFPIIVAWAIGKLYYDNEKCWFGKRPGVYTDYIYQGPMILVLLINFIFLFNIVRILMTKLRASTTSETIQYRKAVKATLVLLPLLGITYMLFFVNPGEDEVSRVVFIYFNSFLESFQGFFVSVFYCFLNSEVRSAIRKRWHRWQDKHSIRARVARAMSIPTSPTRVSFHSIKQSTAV
Test: Inhibition of CRF-stimulated cAMP production in cells expressing CRF1 receptor

| IC50 [nM] | Structure (SMILES) |
| --- | --- |
| 150 | CCCN(CCC)c1cc(C)nc2c(-c3ncc(N(C)C)cc3C)c(C)nn12 |
| 49 | CCCN(CCC)c1cc(C)nc2c(-c3ncc(Cl)cc3Cl)c(C)nn12 |
| 180 | CCCN(CCC)c1cc(C)nc2c(-c3ncc([N+](=O)[O-])cc3C)c(C)nn12 |

Target: T1, Corticotropin-releasing factor receptor 1
Test: Binding affinity for recombinant human CRF1 receptor

| Ki [nM] | Structure (SMILES) |
| --- | --- |
| 88 | CCCN(CCC)c1cc(C)nc2c(-c3ccc(Cl)cn3)c(C)nn12 |
| 14 | CCCN(CCC)c1cc(C)nc2c(-c3ncc(C)cc3[N+](=O)[O-])c(C)nn12 |
| 78 | COCCN(CCOC)c1cc(C)nc2c(-c3ncc(Cl)cc3Cl)c(C)nn12 |
| 40 | CCCN(CCC)c1cc(C)nc2c(-c3ncc(C)cc3N)c(C)nn12 |
| 3.2 | CCCN(CCOC)c1cc(C)nc2c(-c3ncc(Cl)cc3Cl)c(C)nn12 |
| 110 | CCCN(CCC)c1cc(C)nc2c(-c3ncccc3C)c(C)nn12 |
| 40 | CCCN(CCC)c1cc(C)nc2c(-c3ncc(NC)cc3C)c(C)nn12 |
| 13 | CCCN(CCC)c1cc(C)nc2c(-c3ncc(N(CC)CC)cc3C)c(C)nn12 |
| > 10000 | CCCN(CCC)c1cc(C)nc2c(-c3ncc(C)cc3N=O)c(C)nn12 |
| 3.2 | CCCN(CCC)c1cc(C)nc2c(-c3ncc(Cl)cc3Cl)c(C)nn12 |
| 9.1 | CCCN(CCC)c1cc(C)nc2c(-c3ncc([N+](=O)[O-])cc3C)c(C)nn12 |

Second part, the molecule before the results:

| Structure (SMILES) | Ki [nM] |
| --- | --- |
| CCCN(CCC)c1cc(C)nc2c(-c3ncc(C)cc3Cl)c(C)nn12 | 6.2 |
| CCCN(CCC)c1cc(C)nc2c(-c3ncc(N4CCCCC4)cc3C)c(C)nn12 | 17 |
| CCCN(CCC)c1cc(C)nc2c(-c3ncc(I)cc3C)c(C)nn12 | 6.6 |
| CCCN(CCC)c1cc(C)nc2c(-c3ncc(F)cc3C)c(C)nn12 | 19 |
| CCCN(Cc1ccccc1)c1cc(C)nc2c(-c3ncc(C(F)(F)F)cc3Cl)c(C)nn12 | 1.7 |
| CCCN(CC1CC1)c1cc(C)nc2c(-c3ncc(Cl)cc3Cl)c(C)nn12 | 3.9 |
| CCCN(CCC)c1cc(C)nc2c(-c3ncc(OC)cc3C)c(C)nn12 | 10 |
| CCCN(CCC)c1cc(C)nc2c(-c3ncc(N(C)C)cc3C)c(C)nn12 | 10 |
| CCCCN(CCC)c1cc(C)nc2c(-c3ncc(C(F)(F)F)cc3Cl)c(C)nn12 | 1.2 |
| CCCN(CC1CC1)c1cc(C)nc2c(-c3ncc(C(F)(F)F)cc3Cl)c(C)nn12 | 0.8 |
| CCCN(CCC)c1cc(C)nc2c(-c3ncc(N=O)cc3C)c(C)nn12 | 100 |
| CCCN(CCC)c1cc(C)nc2c(-c3ncc(C)cc3O)c(C)nn12 | > 10000 |
| CCCN(CCC)c1cc(C)nc2c(-c3ncc(C)cc3N(C)C)c(C)nn12 | 23 |
| CCCN(CCC)c1cc(C)nc2c(-c3ncc(Cl)cc3C)c(C)nn12 | 6.7 |
| CCCN(CCC)c1cc(C)nc2c(-c3ncc(C)cc3NC)c(C)nn12 | 13 |
| CCCN(CCC)c1cc(C)nc2c(-c3ncc(O)cc3C)c(C)nn12 | 530 |
| CCCN(CCC)c1cc(C)nc2c(-c3ncc(C)cc3OC)c(C)nn12 | 25 |
| CCCCN(CCCC)c1cc(C)nc2c(-c3ncc(C(F)(F)F)cc3Cl)c(C)nn12 | 1.1 |
| CCCN(CCC)c1cc(C)nc2c(-c3ncc(C(F)(F)F)cc3Cl)c(C)nn12 | 1.2 |
| CCCN(CCC)c1cc(C)nc2c(-c3ncc(N)cc3C)c(C)nn12 | 85 |
